# Measured values reported in patent US20190021380A1 (priority 2014, published 2019).
# Structures can show the parent of a compound that is named as a salt. Where two headings read alike, the source gives them in different places.
# What was measured:
# T1R1/T1R3 receptor [1] = target: T1, T1R1/T1R3 receptor (Felis catus, UniProt E3UMS2); assay: Example 8: agonist screening of transmembrane compounds on T1R1/T1R3 in HEK293 cells; assay type: cell-based, cat; conditions: for agonist profile assessment: transmembrane compound alone, in words; for T1R1/T1R3 agonist: transmembrane compound tested at 0.01, 0.1 and 1 mM, HEK293 cells expressing T1R1/T1R3, calcium dye and/or luminescent reporter
# Experimental: (§1) HEK293 cells that stably express T1R3 and inducibly express T1R1 were exposed to a transmembrane compound. Activation of the T1R1/T1R3 receptor was detected by a change in intracellular calcium levels using a calcium sensitive fluorescent dye and/or a luminescent reporter system. […] A FLIPR® Tetra or a FlexStation® 3 was used for data capture.
# Each transmembrane compound was tested at concentrations of 0.01 mM, 0.1 mM, and 1 mM. […] To generate the dose response curves, the transmembrane compound was tested at concentrations of between 0.0001 mM and 1.0 mM in the presence of GMP and Ala.
# T1R1/T1R3 receptor [2] = target: T1, T1R1/T1R3 receptor; assay type: cell-based; conditions: for EC50 +buffer (alone): compound alone in buffer
# Description: HEK293 cells that stably express T1R3 and inducibly express T1R1 were exposed to transmembrane compounds alone or in combination with one or more amino acids and/or one or more nucleotides to activate the umami receptor. Activation of the T1R1/T1R3 receptor was detected by a change in intracellular calcium levels using a calcium sensitive fluorescent dye. Cells that express T1R3 but not T1R1 were used as a control. A FLIPR® Tetra or a FlexStation® 3 was used for data capture.
# In each experiment, serial dilutions of up to 10 mM of the transmembrane compound were added to the T1R1/T1R3-expressing cells.
# T1R1/T1R3 receptor [3] = target: T1, T1R1/T1R3 receptor; assay: Example 8: PAM screening of transmembrane compounds with GMP and Ala on T1R1/T1R3 in HEK293 cells; assay type: cell-based, cat; conditions: for PAM profile assessment: in the presence of GMP and Alanine, in words; for T1R1/T1R3 PAM: compound at 0.01, 0.1, 1 mM in combination with GMP+Ala mixtures (T1-T4), PAM if response to the combination is greater than the sum of the responses to compound alone and to GMP+Ala alone
# Description: as §1, with “to” for “to a”, “compound alone or in combination with Ala and GMP to activate the umami receptor.” for “compound.”
# Dose response curves were generated for each transmembrane compound at concentrations of 0 (buffer only), 0.01, 0.1 and 1 mM, wherein each of the three concentrations of transmembrane compound was tested in combination with 0.03 mM GMP+100 mM Ala (T1); 0.6 mM GMP+10 mM Ala (T2); 0.1 mM GMP+60 mM Ala (T3) and 0.3 mM GMP+60 mM Ala (T4). The T4 mixture was also tested in a 2-fold dilution series (the T4(X) Concentration). In these experiments, the first test concentration was 2× (2 times) the T4 concentration. The subsequent test concentrations were 2-fold dilutions from that (1×, 0.5× etc.). This dilution series was tested with or without the addition of the test compound at a constant 0.3 mM concentration.
# Activation of the umami receptor was also determined in the presence of 1 mM GMP+100 mM Ala to generate a “maximum” umami receptor activation level.
# [4] = threshold in the presence of 0.2 mM IMP, CNBD = Could not be determined
# [5] = in the presence of 0.2 mM IMP, CNBD = Could not be determined
Structure (SMILES),Thres +IMP (0.2 mM) (T1R1/T1R3 receptor [2]; [4]),T1R1/T1R3 PAM (T1R1/T1R3 receptor [3]),T1R1/T1R3 agonist (T1R1/T1R3 receptor [1]),also measured
"O=C1CC(=O)N(Cc2ccccc2)C(=O)N1Cc1ccccc1 [1,3-dibenzylpyrimidine-2,4,6(1H,3H,5H)-trione]",0.1 mM,–,–,agonist profile assessment (T1R1/T1R3 receptor [1]): agonist activity
"O=C(CN1C(=O)C(=O)N(Cc2ccccc2)C1=O)c1ccc(Cl)s1 [1-benzyl-3-(2-(5-chlorothiophen-2-yl)-2-oxoethyl)imidazolidine-2,4,5-trione]",–,–,–,PAM profile assessment (T1R1/T1R3 receptor [3]): PAM activity
COC(=O)[C@H](CC(C)C)NCc1ccccc1.Cl [Benzyl-L-leucine methyl ester hydrochloride],–,–,–,PAM profile assessment (T1R1/T1R3 receptor [3]): PAM activity; agonist profile assessment (T1R1/T1R3 receptor [1]): agonist
"O=C[C@H](O)[C@@H](O)[C@H](O)[C@H](O)CO [D-Glucose, reference compound]",–,–,–,EC50 +buffer (alone) (T1R1/T1R3 receptor [2]; CNBD = Could not be determined): CNBD
"O=C(CN1C(=O)C(=O)N(Cc2ccccc2)C1=O)c1ccccc1 [Formula 1, 1-benzyl-3-(2-oxo-2-phenylethyl)imidazolidine-2,4,5-trione]",–,No,No,–
"O=C(CN1C(=O)C(=O)N(Cc2ccccc2)C1=O)c1ccc2c(c1)CCC2 [Formula 2, 1-benzyl-3-(2-(2,3-dihydro-1H-inden-5-yl)-2-oxoethyl)imidazolidine-2,4,5-trione]",–,No,No,–
"O=C(CN1C(=O)C(=O)N(Cc2ccccc2)C1=O)c1ccc(Br)cc1 [Formula 3, 1-benzyl-3-(2-(4-bromophenyl)-2-oxoethyl)imidazolidine-2,4,5-trione]",–,No,No,–
"O=C(CN1C(=O)C(=O)N(Cc2ccccc2)C1=O)c1ccc2c(c1)OCCO2 [Formula 4, 1-benzyl-3-(2-(2,3-dihydrobenzo[b][1,4]dioxin-6-yl)-2-oxoethyl)imidazolidine-2,4,5-trione]",–,No,No,–
"COc1ccc(C(=O)CN2C(=O)C(=O)N(Cc3ccccc3)C2=O)c(OC)c1 [Formula 5, 1-benzyl-3-(2-(2,4-dimethoxyphenyl)-2-oxoethyl)imidazolidine-2,4,5-trione]",–,No,No,–
"O=C(CN1C(=O)C(=O)N(CCc2cccs2)C1=O)c1ccccc1 [Formula 6, 1-(2-oxo-2-phenylethyl)-3-(2-(thiophen-2-yl)ethyl)imidazolidine-2,4,5-trione]",–,No,No,–
"O=C(CN1C(=O)C(=O)N(CCc2cccs2)C1=O)c1ccc2c(c1)OCO2 [Formula 7, 1-(2-(benzo[d][1,3]dioxol-5-yl)-2-oxoethyl)-3-(2-(thiophen-2-yl)ethyl)imidazolidine-2,4,5-trione]",–,No,No,–
"O=C(CN1C(=O)C(=O)N(Cc2ccccc2)C1=O)c1ccc2c(c1)OCCCO2 [Formula 8, 1-benzyl-3-(2-(3,4-dihydro-2H-benzo[b][1,4]dioxepin-7-yl)-2-oxoethyl)imidazolidine-2,4,5-trione]",–,Weak PAM,No,PAM profile assessment (T1R1/T1R3 receptor [3]): PAM activity
"N#Cc1cccc(NC(=O)CN2C(=O)C(=O)N(Cc3ccccc3)C2=O)c1 [Formula 9, 2-(3-benzyl-2,4,5-trioxoimidazolidin-1-yl)-N-(3-cyanophenyl)acetamide]",–,No,No,–
"COc1ccccc1C(=O)CN1C(=O)C(=O)N(Cc2cccs2)C1=O [Formula 10, 1-(2-(2-methoxyphenyl)-2-oxoethyl)-3-(thiophen-2-ylmethyl)imidazolidine-2,4,5-trione]",–,No,No,–
"O=C(CN1C(=O)C(=O)N(CCc2cccs2)C1=O)c1cccc2ccccc12 [Formula 11, 1-(2-(naphthalen-1-yl)-2-oxoethyl)-3-(2-(thiophen-2-yl)ethyl)imidazolidine-2,4,5-trione]",–,No,No,–
"O=C(CN1C(=O)C(=O)N(Cc2ccccc2)C1=O)c1ccc(Cl)s1 [Formula 12, 1-benzyl-3-(2-(5-chlorothiophen-2-yl)-2-oxoethyl)imidazolidine-2,4,5-trione]",–,Weak PAM,No,–
"O=C1C(=O)N(Cc2ccccc2)C(=S)N1Cc1ccccc1 [Formula 13, 1,3-dibenzyl-2-thioxoimidazolidine-4,5-dione]",–,No,No,–
"CCCC(CCC)NC(=O)c1ccc2c(c1)OCO2 [Formula 14, N-(heptan-4-yl)benzo[d][1,3]dioxole-5-carboxamide]",–,Yes,Yes,–
"COC(=O)[C@H](Cc1ccccc1)NCc1ccccc1.Cl [Formula 15, N-Benzyl-L-phenylalanine methyl ester hydrochloride]",–,Yes,Yes,–

Structure (SMILES),Thres +IMP (0.2 mM) (T1R1/T1R3 receptor [2]; [4]),T1R1/T1R3 PAM (T1R1/T1R3 receptor [3]),T1R1/T1R3 agonist (T1R1/T1R3 receptor [1]),also measured
"COC(=O)[C@@H](Cc1ccccc1)NCc1ccccc1.Cl [Formula 16, N-Benzyl-D-Phenylalanine methyl ester hydrochloride]",–,Yes,Yes,–
"COC(=O)[C@H](CC(C)C)NCc1ccccc1.Cl [Formula 18, Benzyl-L-leucine methyl ester hydrochloride]",–,Yes,Yes,–
"C[C@H](N)C(=O)O [L-Alanine, reference compound]",3.0 mM,–,–,–
"N[C@@H](CS)C(=O)O [L-Cysteine, cysteine]",10.0 mM,–,–,Max resp ΔF/F +IMP (0.2 mM) (T1R1/T1R3 receptor [2]; [5]): 0.5800 ΔF/F
"N[C@@H](Cc1c[nH]cn1)C(=O)O [L-Histidine, L-histidine]",10.0 mM,–,–,–
"N[C@@H](Cc1ccccc1)C(=O)O [L-Phenylalanine, reference compound]",0.1 mM,–,–,Max resp ΔF/F +IMP (0.2 mM) (T1R1/T1R3 receptor [2]; [5]): 0.5900 ΔF/F
"O=C(O)[C@@H]1CCCN1 [L-Proline, proline]",–,–,–,EC50 +IMP (0.2 mM) (T1R1/T1R3 receptor [2]): CNBD; Max resp % of Ala +IMP (0.2 mM) (T1R1/T1R3 receptor [2]): CNBD; Max resp ΔF/F +IMP (0.2 mM) (T1R1/T1R3 receptor [2]): CNBD; Thres +IMP (0.2 mM) (T1R1/T1R3 receptor [2]): CNBD
"N[C@@H](CO)C(=O)O [L-Serine, serine]",3.0 mM,–,–,–
"N[C@@H](Cc1c[nH]c2ccccc12)C(=O)O [L-Tryptophan, tryptophan]",0.1 mM,–,–,–
"N[C@@H](Cc1ccc(O)cc1)C(=O)O [L-Tyrosine, tyrosine]",3.0 mM,–,–,–
"N[C@@H](CCC(=O)O)C(=O)[O-].[Na+] [MSG (Glutamic acid sodium salt), monosodium glutamate]",CNBD,–,–,"EC50 +IMP (0.2 mM) (T1R1/T1R3 receptor [2]; [5]): CNBD; Max resp ΔF/F +IMP (0.2 mM) (T1R1/T1R3 receptor [2]; [5]): CNBD; Max resp % of Ala +IMP (0.2 mM) (T1R1/T1R3 receptor [2]; in the presence of 0.2 mM IMP, relative to Ala, CNBD = Could not be determined): CNBD"
"O=C(NCCCCNC(=O)c1cccnc1)c1cccnc1 [N,N′-(butane-1,4-diyl)dinicotinamide]",0.1 mM,–,–,EC50 +Alanine (20 mM) (T1R1/T1R3 receptor [2]): CNBD; EC50 +buffer (alone) (T1R1/T1R3 receptor [2]; CNBD = Could not be determined): CNBD
"O=C(NCCc1c[nH]c2ccccc12)c1cccnc1 [N-(2-(1H-indol-3-yl)ethyl)nicotinamide, N-(2-(1H-Indol-3-yl)ethyl)nicotinamide]",0.003 mM,–,–,–
O=C(NCCc1ccccc1)c1ccccc1 [N-phenethylbenzamide],0.01 mM,–,–,Max resp ΔF/F +IMP (0.2 mM) (T1R1/T1R3 receptor [2]; [5]): 0.9800 ΔF/F
"O=C(NCCc1ccccc1)c1ccc2c(c1)OCO2 [N-phenethylbenzo[d][1,3]dioxole-5-carboxamide]",0.01 mM,–,–,EC50 +Alanine (20 mM) (T1R1/T1R3 receptor [2]): CNBD
O=C(NCCc1ccccc1)c1cccnc1 [N-phenethylnicotinamide],0.03 mM,–,–,–
"C=C[C@H]1C[N@@]2CC[C@H]1C[C@H]2[C@H](O)c1ccnc2ccc(OC)cc12 [Quinine HCL, reference compound]",–,–,–,EC50 +buffer (alone) (T1R1/T1R3 receptor [2]; CNBD = Could not be determined): CNBD
"CCOC(=O)NC(=O)C(c1ccccc1)c1ccccc1 [Ro 01-6128, reference compound]",0.01 mM,–,–,Thres +Alanine (20 mM) (T1R1/T1R3 receptor [2]): 0.3 mM; Activity (T1R1/T1R3 receptor [2]; overall call for modulation of T1R1/T1R3: active or N/A (= Not active)): active
